Reference: paper PMC8273890, “Development of [^18F]AldoView as the First Highly Selective Aldosterone Synthase PET Tracer for Imaging of Primary Hyperaldosteronism” (Journal of Medicinal Chemistry, 2021)
Entries after “also recorded” stand apart in the source; their conditions may differ.

Columns and labels:
human CYP11B2 [1] = experiment: Inhibition of human CYP11B2 (aldosterone synthase), literature values; format: biochemical; details: human isoforms
hCYP11B1 = tested on: hCYP11B1; parameters: method as in PMID 26005536; details: read-out: IC50 CYP11B1; cited from earlier work
[2] = Blood/plasma metabolite analysis by radio-HPLC; format: in vivo, female BALB/c mice
Description: Blood metabolite analysis was performed as part of the biodistribution studies (n = 2–3 per time point). Blood samples were collected in heparin-coated tubes, and an aliquot (20 μL) was taken for gamma counting. After centrifugation (5 min, 13,000 rpm), the plasma (∼500 μL) was separated. Plasma proteins were subsequently precipitated with ice-cold acetonitrile (1 mL), and samples were centrifuged (5 min, 13,000 rpm). An aliquot of the supernatant (500 μL) was separated from the pellet and diluted with water (500 μL). The recovery of radioactivity in the supernatant was near quantitative (>95%). Analysis was carried out by radio-HPLC using a Phenomenex Onyx monolithic C-18 column (100 × 10 mm). The mobile phase consisted of water and methanol, and the flow rate was 5 mL/min. An isocratic eluent (10% methanol in water) was used for 3 min, followed by a gradient from 10 to 70% methanol over 7 min.

human CYP11B2 [3] = tested on: human CYP11B2; parameters: method as in PMID 26005536; details: cited from earlier work
CYP11B2 = target: T1, CYP11B2 (Homo sapiens, UniProt P19099); experiment: Quantitative phosphorimaging (in vitro autoradiography) in human adrenal tissue sections; format: binding; details: for NSB (non-specific binding): with 25 μM AldoView
T1 construct: from tissue
T1 sequence (P19099 25-503): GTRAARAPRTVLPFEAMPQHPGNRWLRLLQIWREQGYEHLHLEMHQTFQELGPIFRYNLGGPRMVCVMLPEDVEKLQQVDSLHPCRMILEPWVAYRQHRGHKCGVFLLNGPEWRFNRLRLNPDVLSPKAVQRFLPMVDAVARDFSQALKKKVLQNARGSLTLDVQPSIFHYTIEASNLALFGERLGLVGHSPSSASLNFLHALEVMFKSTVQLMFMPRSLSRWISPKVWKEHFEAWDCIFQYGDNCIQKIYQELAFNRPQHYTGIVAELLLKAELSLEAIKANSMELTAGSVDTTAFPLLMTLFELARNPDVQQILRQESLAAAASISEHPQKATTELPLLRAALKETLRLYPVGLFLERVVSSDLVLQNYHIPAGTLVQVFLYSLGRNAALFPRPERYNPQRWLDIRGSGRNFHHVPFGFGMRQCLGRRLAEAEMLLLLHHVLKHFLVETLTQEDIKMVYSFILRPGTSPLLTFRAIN
Source text: Adrenal surgical specimens were obtained from patients with Conn’s disease, Cushing’s disease, pheochromocytoma, and adrenal tumors, who had consented to the use of their tissue for research applications. Ethical approval was obtained from the UK Multicentre Research Ethics Committee (06/Q0104/133). Following routine adrenalectomy, surgical specimens were immediately flash frozen using a slurry of isopentane and dry ice. Cryosections (20 μm) obtained from the frozen tissue blocks were mounted on lysine-coated microscope slides and stored at −80 °C.
Thawed tissue sections on microscopic slides were dipped in pentane for 5 s to degrease the tissue. This step was required to avoid nonspecific binding (NSB), in particular to medullar fat. Tissue sections were subsequently rehydrated in tris-buffered saline (TBS; pH = 7.5) for 30 min and subsequently incubated with a solution of [^18F]AldoView in TBS for 60 min (1 mL per slide). For determination of the total binding (TB), [^18F]AldoView was diluted with TBS to a concentration of 2 MBq/mL. For the determination of NSB, a solution of the nonradioactive reference compound in ethanol (3.5 mM) was added to a solution of [^18F]AldoView in TBS and diluted to give a final AldoView concentration of 25 μM and a final [^18F]AldoView concentration of 2 MBq/mL. After incubation, unbound [^18F]AldoView was removed by washing the sections in ice-cold TBS (three times for 5 min) and water (1 min). Internal standards were prepared by serial dilution of the [^18F]AldoView solution used for determination of the TB. Tissue sections and internal standards absorbed on filter paper were left to air-dry and subsequently exposed to a phosphor screen (BAS-IP MS; GE Healthcare) overnight. Phosphorimaging was performed on a Typhoon Trio scanner (GE Healthcare). All phosphorimaging experiments were performed in at least three adjacent tissue sections per case, tissue block, and experimental condition (TB, NSB). Quantification of phosphor images was performed using the analysis software ImageJ (version 1.48).[28] Determination of TB and NSB (in kBq/cm^2; Table S1) was based on correlation curves generated from the internal standards. The specific [^18F]AldoView binding was calculated as the difference between TB and NSB.

[4] = Ex vivo biodistribution in mice (gamma counting); parameters: species or system female BALB/c mice
Description: [^18F]AldoView (6.6 ± 1.9 MBq, formulated in saline containing 5% ethanol) was administered intravenously into the tail vein of female wild-type BALB/c mice (n = 3–4 per time point) without anesthesia. At designated time points (15, 30, 60, and 120 min postinjection), animals were anesthetized with isoflurane (4% v/v in oxygen) and the blood was taken by cardiac puncture. Mice were subsequently sacrificed by cervical dislocation. The organs of interest were sampled and weighed, and the radioactivity content was measured by automated gamma counting (PerkinElmer Wizard^2). Results were expressed as % ID/g bodyweight.

[5] = Dynamic PET/CT imaging in mice; format: in vivo, female BALB/c mice; details: PET
Description: Dynamic PET imaging was performed using a nanoScan PET-CT system manufactured by Mediso (Medical Imaging Systems, Budapest, Hungary). Mice (n = 6) were anaesthetized with isoflurane (2% v/v in oxygen) and placed on the preheated bed of the scanner (set at 38 °C). [^18F]AldoView (7.3 ± 4.1 MBq, formulated in 100–150 μl saline containing 5% ethanol) was injected into the tail vein via intravenous cannulation. After injection, the catheter was carefully removed. The breathing rate and body temperature of the animals were closely monitored during the dynamic PET scans and, if necessary, the isoflurane dose was adjusted. Scans were recorded over 1 h, and the animals were subsequently sacrificed by cervical dislocation. Quantification of the tissue uptake (in % ID/g) was carried out based on the regions of interest manually drawn on the CT using the software package VivoQuant 1.23 (inviCRO, Boston, USA).

[6] = specimen 1b (high), case 1, PHA
[7] = specimen 2b (high), case 2, PHA
[8] = specimen 2c (high), case 2, PHA
[9] = specimen 3b (high), case 3, PHA
[10] = specimen 6a, case 6, pheochromocytoma
[11] = specimen 6b, case 6, pheochromocytoma
[12] = specimen 7a, case 7, adrenal tumor
[13] = biodistribution, 15 min postinjection
[14] = biodistribution, 30 min postinjection (peak)

SMILES: Fc1cc2nc(-c3cncc([18F])c3)n(C3CC3)c2cc1F [[^18F]AldoView]
- hCYP11B2 selectivity (B2/B1 ratio) (human CYP11B2 [1]): 93
- IC50 (hCYP11B1): 435 nM
- intact parent fraction in blood ([2]; 15 min postinjection): 59%
- intact parent fraction in blood ([2]; 30 min postinjection): 29%
- intact parent fraction in blood ([2]; 60 min postinjection): 21%
- tracer in blood ([2]; 120 min postinjection): still detectable in blood at 120 min, although at low levels
- IC50 (human CYP11B2 [3]): 4.7 nM
- tracer binding in specimens from control subjects (CYP11B2; n = 3): 2.6 ± 1.8 kBq/cm^2
- tracer binding in CYP11B2-negative areas in specimens from patients with PHA (CYP11B2; n = 4): 3.2 ± 1.1 kBq/cm^2
- SB (specific binding) (CYP11B2; specimen 1a, case 1, PHA): 19.7 kBq/cm2
- TB (total binding) (CYP11B2; specimen 1a, case 1, PHA): 20.1 kBq/cm2
- NSB (non-specific binding) (CYP11B2; specimen 1a, case 1, PHA): 0.4 kBq/cm2
- SB (specific binding) (CYP11B2; [6]): 8.6 kBq/cm2
- TB (total binding) (CYP11B2; [6]): 17.9 kBq/cm2
- NSB (non-specific binding) (CYP11B2; [6]): 9.3 kBq/cm2
- SB (specific binding) (CYP11B2; specimen 1b (low), case 1, PHA): 4.8 kBq/cm2
- TB (total binding) (CYP11B2; specimen 1b (low), case 1, PHA): 5.6 kBq/cm2
- NSB (non-specific binding) (CYP11B2; specimen 1b (low), case 1, PHA): 0.9 kBq/cm2
- SB (specific binding) (CYP11B2; specimen 2a, case 2, PHA): 2.5 kBq/cm2
- TB (total binding) (CYP11B2; specimen 2a, case 2, PHA): 2.8 kBq/cm2
- NSB (non-specific binding) (CYP11B2; specimen 2a, case 2, PHA): 0.3 kBq/cm2
- SB (specific binding) (CYP11B2; [7]): 18.9 kBq/cm2
- TB (total binding) (CYP11B2; [7]): 20.2 kBq/cm2
- NSB (non-specific binding) (CYP11B2; [7]): 1.3 kBq/cm2
- SB (specific binding) (CYP11B2; specimen 2b (low), case 2, PHA): 2.1 kBq/cm2
- TB (total binding) (CYP11B2; specimen 2b (low), case 2, PHA): 2.4 kBq/cm2
- NSB (non-specific binding) (CYP11B2; specimen 2b (low), case 2, PHA): 0.3 kBq/cm2
- SB (specific binding) (CYP11B2; [8]): 19.1 kBq/cm2
- TB (total binding) (CYP11B2; [8]): 20.0 kBq/cm2
- NSB (non-specific binding) (CYP11B2; [8]): 1.0 kBq/cm2
- SB (specific binding) (CYP11B2; specimen 2c (low), case 2, PHA): 3.0 kBq/cm2
- TB (total binding) (CYP11B2; specimen 2c (low), case 2, PHA): 3.3 kBq/cm2
- NSB (non-specific binding) (CYP11B2; specimen 2c (low), case 2, PHA): 0.3 kBq/cm2
- SB (specific binding) (CYP11B2; specimen 3a, case 3, PHA): 6.8 kBq/cm2
- TB (total binding) (CYP11B2; specimen 3a, case 3, PHA): 7.6 kBq/cm2
- NSB (non-specific binding) (CYP11B2; specimen 3a, case 3, PHA): 0.7 kBq/cm2
- SB (specific binding) (CYP11B2; [9]): 10.4 kBq/cm2
- TB (total binding) (CYP11B2; [9]): 15.5 kBq/cm2
- NSB (non-specific binding) (CYP11B2; [9]): 5.1 kBq/cm2
- SB (specific binding) (CYP11B2; specimen 3b (low), case 3, PHA): 3.0 kBq/cm2
- TB (total binding) (CYP11B2; specimen 3b (low), case 3, PHA): 4.3 kBq/cm2
- NSB (non-specific binding) (CYP11B2; specimen 3b (low), case 3, PHA): 1.2 kBq/cm2
- SB (specific binding) (CYP11B2; specimen 4a, case 4, PHA): 3.6 kBq/cm2
- TB (total binding) (CYP11B2; specimen 4a, case 4, PHA): 4.2 kBq/cm2
- NSB (non-specific binding) (CYP11B2; specimen 4a, case 4, PHA): 0.6 kBq/cm2
- SB (specific binding) (CYP11B2; specimen 4b, case 4, PHA): 16.5 kBq/cm2
- TB (total binding) (CYP11B2; specimen 4b, case 4, PHA): 18.4 kBq/cm2
- NSB (non-specific binding) (CYP11B2; specimen 4b, case 4, PHA): 1.9 kBq/cm2
- SB (specific binding) (CYP11B2; specimen 5a, case 5, PHA): 5.1 kBq/cm2
- TB (total binding) (CYP11B2; specimen 5a, case 5, PHA): 5.9 kBq/cm2
- NSB (non-specific binding) (CYP11B2; specimen 5a, case 5, PHA): 0.8 kBq/cm2
- SB (specific binding) (CYP11B2; specimen 5b, case 5, PHA): 4.2 kBq/cm2
- TB (total binding) (CYP11B2; specimen 5b, case 5, PHA): 5.1 kBq/cm2
- NSB (non-specific binding) (CYP11B2; specimen 5b, case 5, PHA): 0.9 kBq/cm2
- SB (specific binding) (CYP11B2; specimen 5c, case 5, PHA): 3.5 kBq/cm2
- TB (total binding) (CYP11B2; specimen 5c, case 5, PHA): 4.5 kBq/cm2
- NSB (non-specific binding) (CYP11B2; specimen 5c, case 5, PHA): 1.0 kBq/cm2
- SB (specific binding) (CYP11B2; [10]): < LOQ; also recorded: limit of quantification
- TB (total binding) (CYP11B2; [10]): < LOQ
- NSB (non-specific binding) (CYP11B2; [10]): < LOQ
- SB (specific binding) (CYP11B2; [11]): 4.0 kBq/cm2
- TB (total binding) (CYP11B2; [11]): 5.3 kBq/cm2
- NSB (non-specific binding) (CYP11B2; [11]): 1.3 kBq/cm2
- SB (specific binding) (CYP11B2; [12]): 0.5 kBq/cm2
- TB (total binding) (CYP11B2; [12]): 1.7 kBq/cm2
- NSB (non-specific binding) (CYP11B2; [12]): 1.2 kBq/cm2
- SB (specific binding) (CYP11B2; specimen 8a, case 8, Cushing's): 3.2 kBq/cm2
- TB (total binding) (CYP11B2; specimen 8a, case 8, Cushing's): 3.7 kBq/cm2
- NSB (non-specific binding) (CYP11B2; specimen 8a, case 8, Cushing's): 0.5 kBq/cm2
- ratio between tracer uptake in adrenals and kidneys ([4]; 15 min postinjection): 1.2
- activity level in kidneys [4, 13]: 5.2 ± 3.5 % ID/g
- activity level in liver [4, 13]: 11.8 ± 4.1 % ID/g
- activity level in small intestines [4, 13]: 4.3 ± 4.7 % ID/g
- activity level in adrenals ([4]; biodistribution, 15 min postinjection, n = 2): 6.1 % ID/g
- activity level in adrenals ([4]; biodistribution, 30 min postinjection): 4.0 ± 2.5 % ID/g
- activity level in kidneys [4, 14]: 5.7 ± 2.9 % ID/g
- activity level in liver [4, 14]: 12.4 ± 5.9 % ID/g
- activity level in adrenals ([4]; biodistribution, 60 min postinjection): 1.8 ± 1.1 % ID/g
- time for liver activity to decrease to half the peak value [5]: ≤ 30 min
- peak liver activity ([5]; at 6 min postinjection): 48 ± 11 % ID/g
- level of activity in muscle ([5]; knee extensors, throughout scan (1 h)): < 1.5 % ID/g
- time of peak liver activity ([5]; postinjection): 6 min

SMILES: Fc1cncc(-c2nc3cc(F)c(F)cc3n2C2CC2)c1 [Compound 3, 1-Cyclopropyl-5,6-difluoro-2-(5-fluoropyridin-3-yl)-1H-benzo[d]imidazole, reference compound]
- IC50 (hCYP11B1): 435 nM
- IC50 (human CYP11B2 [3]): 4.7 nM
